Reference: PMC12048553, “Labels as a feature: Network homophily for systematically annotating human GPCR drug-target interactions” (Nature Communications, 2025)

Target: CHRM3 (Homo sapiens, UniProt P20309)
Assay: yeast-expressed receptor NanoLuc screen at […], |Z-score| […]
Type: cell-based

Sequence of CHRM3 (P20309 whole entry): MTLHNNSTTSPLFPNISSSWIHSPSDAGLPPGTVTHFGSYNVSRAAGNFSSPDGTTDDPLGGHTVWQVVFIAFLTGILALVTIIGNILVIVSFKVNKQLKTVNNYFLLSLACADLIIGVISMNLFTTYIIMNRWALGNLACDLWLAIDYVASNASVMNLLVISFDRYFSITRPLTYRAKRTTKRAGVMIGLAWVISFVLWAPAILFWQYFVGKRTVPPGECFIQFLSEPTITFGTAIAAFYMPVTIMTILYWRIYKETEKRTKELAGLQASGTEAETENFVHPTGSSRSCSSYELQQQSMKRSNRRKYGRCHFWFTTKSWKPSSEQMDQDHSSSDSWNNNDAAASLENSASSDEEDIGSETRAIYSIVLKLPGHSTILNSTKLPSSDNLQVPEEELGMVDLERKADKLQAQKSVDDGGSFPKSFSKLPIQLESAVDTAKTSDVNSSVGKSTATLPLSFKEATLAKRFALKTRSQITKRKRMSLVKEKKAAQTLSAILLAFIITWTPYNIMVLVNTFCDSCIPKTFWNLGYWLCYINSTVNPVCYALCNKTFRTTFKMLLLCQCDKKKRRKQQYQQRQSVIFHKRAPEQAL

For `CC(C)OC(=O)CCC/C=C\C[C@@H]1[C@@H](CC[C@@H](O)CCc2ccccc2)[C@H](O)C[C@@H]1O` [Latanoprost], the “yeast-expressed receptor NanoLuc screen at 10 uM, |Z-score| > 3” value was “Latanoprost for mitigating increased intraoccular pressure may be partially explained by the observed interaction with CHRM3”.
